From patent US8829014B2, “Thiazole and thiophene analogues, and their use in treating autoimmune diseases and cancers” (Board of Supervisors of Louisiana State University and …, priority 2006, dated 2014)
Read-outs that look alike come from different tables or passages of the source.

Test system: carageenan-induced edema
Experiment: Carrageenan-induced rat paw edema test (anti-inflammatory activity)
Type: in vivo, Sprague-Dawley rats
Parameters: % Protection: concentration or dose not given beside the values
Details: for inhibition in vivo at 50 mg/kg: Rattus norvegicus, po, 3 h
Procedure: Sprague-Dawley rats, male and female, 150-250 g will be used in an edema test. Rats will be deprived of food but not water for 18 hours prior to the experiment. The test compounds will be administered with a blunt-tipped needle orally, 50 mg/kg, as a suspension in 0.1% sodium CMC (carboxymethylcellulose) vehicle. Alternatively, the test compounds will be injected intravenously, subcutaneously, or intraperitoneally. One hour later, 0.1 ml of a 1% carrageenan solution in saline will be injected in the sub-plantar region of the right hind paw of each rat. […] The reading will be repeated 3 hours later. The displacement readings give a measure of carageenan-induced edema. Any reduction in carageenan-induced edema with a test compound, as compared to saline control, is a measure of the anti-inflammatory activity of the test compound. The percentage protection at 50-mg/kg doses was calculated according to the following formula: % Protection=[(Control−Test)/Control]×100%.
Following treatment, the media from the VSMC and HUVEC incubations were removed, and the amount of lactate dehydrogenase (LDH) released into the medium was determined with a commercial kit and expressed as a % increase over vehicle-treated cells. HPT toxicity was determined by the ethidium homodimer (EthHD) uptake assay. […] The lead compounds were also tested in two pairs of cell lines from the skin or prostate, one tumorigenic and one non-tumorigenic, to test for differing toxicity or heightened sensitivity in the tumorigenic lines. The cells were treated for 48 h with vehicle (0.1% DMSO) or 10 μM of each drug candidate, and the viability of the cells was determined by the MTT assay, expressed as a % decrease in viability compared to vehicle-treated cells. The in vivo inflammation model measured the % inhibition of rat paw edema induced by carageenan injection.

[1] = rat paw edema, 50 mg/kg, reading 3 hours after carrageenan, [(Control−Test)/Control]×100%, read-out: % Protection P
[2] = rat paw edema, 50 mg/kg, reading 3 hours after carrageenan, [(Control−Test)/Control]×100%, 50 mg/kg
[3] = carrageenan-induced rat paw edema, defined in Example 397, read-out: % Protection

Compound | inhibition in vivo at 50 mg/kg [1] | other results
O=C(c1ccccc1)c1cc(-c2ccncc2)c(N2CCOCC2)s1 [Example 102, (5-Morpholin-4-yl-4-pyridin-4-yl-thiophene-2-yl)-phenyl-methanone] | 52% | 
COc1ccc(C(=O)c2cc(-c3ccncc3)c(N3CCOCC3)s2)cc1 [Example 104, (4-Methoxy-phenyl)-(5-morpholin-4-yl-4-pyridin-4-yl-thiophen-2-yl)-methanone] | 43.5% | 
O=C(c1ccc(Cl)cc1)c1cc(-c2ccncc2)c(N2CCOCC2)s1 [Example 105, (4-Chloro-phenyl)-(5-morpholin-4-yl-4-pyridin-4-yl-thiophen-2-yl)-methanone] | 47.2% | 
O=C(c1cc(-c2ccncc2)c(N2CCOCC2)s1)c1ccc(Cl)cc1Cl [Example 106, (2,4-Dichloro-phenyl)-(5-morpholin-4-yl-4-pyridin-4-yl-thiophen-2-yl)-methanone] | -75.2% | 
CC(=O)Nc1ccc(C(=O)c2cc(-c3ccncc3)c(N3CCOCC3)s2)cc1 [Example 109, N-[4-(5-Morpholin-4-yl-4-pyridin-4-yl-thiophen-2-carbonyl)-phenyl]-acetamide] | -75.2% | 
O=C(c1cccnc1)c1cc(-c2ccncc2)c(N2CCOCC2)s1 [Example 110, (5-Morpholin-4-yl-4-pyridin-4-yl-thiophen-2-yl)-pyridin-3-yl-methanone] | -6.93% | 
O=C(c1ccncc1)c1cc(-c2ccncc2)c(N2CCOCC2)s1 [Example 111, (5-Morpholin-4-yl-4-pyridin-4-yl-thiophen-2-yl)-pyridin-4-yl-methanone] | 59.1% | 
CS(=O)(=O)c1ccc(-c2cc(C(=O)c3cc(-c4ccc(S(C)(=O)=O)cc4)c(N4CCOCC4)s3)sc2N2CCOCC2)cc1 [Example 112, Bis-[4-(4-methansulfonyl-phenyl)-5-morpholin-4-yl-thiophen-2-yl]-methanone] | 55.6% | 
CC(=O)Nc1ccc(-c2cc(C(=O)c3cc(-c4ccc(NC(C)=O)cc4)c(N4CCOCC4)s3)sc2N2CCOCC2)cc1 [Example 113, N-{4-{5-[4-(4-acetylamino-phenyl)-5-morpholin-4-yl-thiophene-2-carbonyl]-2-morpholin-4-yl-thiophene-3-yl}-phenyl)-acetamide] | 45.5% | 
O=C(c1cc(-c2ccc(Cl)cc2)c(N2CCOCC2)s1)c1cc(-c2ccc(Cl)cc2)c(N2CCOCC2)s1 [Example 114, Bis-[4-(4-chloro-phenyl)-5-morpholin-4-yl-thiophen-2-yl]-methanone] | 56.6% | 
Cc1nc(NC(=O)c2ccccc2)sc1C(=O)c1sc(NC(=O)c2ccccc2)nc1C [Example 121, Bis-[2-(2-Benzoyl-amino)-4-methyl-thiazole-5-yl]-methanone] |  | % Protection P [2]: 62%
COC(=O)Nc1nc(C)c(C(=O)c2sc(NC(=O)OC)nc2C)s1 [Example 123, Dimethyl[carbonyl-bis(4-methyl-1,3-thiazole-5,2-diyl)]biscarbamate] | 23.9% | 
O=C(c1sc(Nc2ccc(Cl)cc2)nc1-c1ccccc1)c1sc(Nc2ccc(Cl)cc2)nc1-c1ccccc1 [Example 127, Bis-[2-(4-Chloro-phenylamino)-4-phenyl-thiazole-5-yl]-methanone] | 43.5% | 
Cc1nc(NC(=O)c2ccccc2)sc1C(=O)c1sc(NC(=O)c2ccccc2)nc1C [Example 128, Bis-[2-(2-Benzoyl-amino)-4-methyl-thiazole-5-yl]-methanone] |  | % Protection P [2]: 34%
O=C(Nc1nc(-c2ccccc2)c(C(=O)c2sc(NC(=O)c3ccco3)nc2-c2ccccc2)s1)c1ccco1 [Example 129, Bis-[2-(2-Furoyl-amino)-4-phenyl-thiazole-5-yl]-methanone] | 55% | 
CCOC(=O)Nc1nc(-c2ccccc2)c(C(=O)c2sc(NC(=O)OCC)nc2-c2ccccc2)s1 [Example 131, Diethyl[carbonyl-bis(4-phenyl-1,3-thiazole-5,2-diyl)]biscarbamate] | 69.8% | 
Cc1ccccc1-n1c(-c2sc(Nc3ccc(Cl)cc3)nc2C)nc2ccccc2c1=O [Example 170, 2-[2-(4-Chlorophenylamino)-4-methyl-thiazol-5-yl]-3-o-tolyl-3H-quinazolin-4-one] |  | inhibition in vivo at 50 mg/kg [3]: 45%

Compound | inhibition in vivo at 50 mg/kg [1] | other results
Cc1ccccc1-n1c(-c2sc(Nc3ccc(Cl)cc3)nc2-c2ccccc2)nc2ccccc2c1=O [Example 178, 2-[2-(4-Chloro-phenylamino)-4-phenyl-thiazol-5-yl]-3-o-tolyl-3H-quinazolin-4-one] |  | inhibition in vivo at 50 mg/kg [3]: 51%
CCOC(=O)Nc1nc(C)c(-c2nc3ccccc3c(=O)n2-c2ccc(C)cc2)s1 [Example 190, (4-Methyl-5-(4-oxo-3-p-tolyl-3,4-dihydro-quinazolin-2-yl)-thiazol-2-yl)-carbamic acid ethyl ester] |  | inhibition in vivo at 50 mg/kg [3]: 24%
COc1ccccc1-n1c(-c2sc(Nc3ccc(Cl)cc3)nc2C)nc2ccccc2c1=O [Example 203, 2-[2-(4-Chlorophenylamino)-4-methyl-thiazol-5-yl]-3-(2-methoxyphenyl)-3H-quinazoline-4-one] |  | inhibition in vivo at 50 mg/kg [3]: 27%
COc1ccccc1-n1c(-c2sc(Nc3ccc(Cl)cc3)nc2-c2ccccc2)nc2ccccc2c1=O [Example 208, 2-[2-(4-Chloro-phenylamino)-4-phenyl-thiazol-5-yl]-3-(2-methoxyphenyl)-3H-quinazolin-4-one] |  | inhibition in vivo at 50 mg/kg [3]: 31%
O=c1c2ccccc2nc(-c2sc(Nc3ccc(Cl)cc3)nc2-c2ccccc2)n1-c1ccccc1Cl [Example 238, 2-[2-(4-Chlorophenylamino)-4-phenyl-thiazol-5-yl]-3-(2-Chloro-phenyl)1-3H-quinazolin-4-one] |  | % Protection (carrageenan-induced rat paw edema, defined in Example 397): 61%
Cc1ccc(Nc2nc(C)c(-c3nc4ccccc4c(=O)n3-c3ccc(Cl)cc3)s2)cc1 [Example 247, 2-[2-(4-Methylphenylamino)-4-methyl-thiazol-5-yl]-3-(4-chloro-phenyl)-3H-quinazolin-4-one] |  | inhibition in vivo at 50 mg/kg [3]: 71.9%
CCOC(=O)Nc1nc(C)c(-c2nc3ccccc3c(=O)n2-c2ccc(C(C)=O)cc2)s1 [Example 259, (4-Methyl-5-(4-oxo-3-(4-acetyl-phenyl)-3,4-dihydro-quinazolin-2-yl)-thiazol-2-yl)-carbamic acid ethyl ester] |  | inhibition in vivo at 50 mg/kg [3]: 69.7%
Cc1ccccc1-n1c(-c2cc(-c3ccccc3)c(N3CCOCC3)s2)nc2ccccc2c1=O [Example 278, 2-(5-Morpholin-4-yl-4-phenyl-thiophene-2-yl)-3-0-tolyl-3H-quinazolin-4-one] |  | % Protection P (rat paw edema, 50 mg/kg, reading 3 hours after carrageenan, [(Control−Test)/Control]×100%): 37%
Cc1ccccc1-n1c(-c2cc(-c3ccc(Cl)cc3)c(N3CCOCC3)s2)nc2ccccc2c1=O [Example 279, 2-[4-(4-Chloro-phenyl)-5-morpholin-4-yl-thiophen-2-yl]-3-o-tolyl-3H-quinazolin-4-one] | 0% | 
Cc1ccccc1-n1c(-c2cc(-c3ccc(S(C)(=O)=O)cc3)c(N3CCOCC3)s2)nc2ccccc2c1=O [Example 281, 2-[4-(4-Methanesulfonylphenyl)-5-morpholin-4-yl-thiophen-2-yl]-3-o-tolyl-3H-quinazolin-4-one] | 50% | 
Cc1cccc(-n2c(-c3cc(-c4ccc(S(C)(=O)=O)cc4)c(N4CCOCC4)s3)nc3ccccc3c2=O)c1 [Example 287, 2-[4-(4-Methanesulfonyl-phenyl)-5-morpholin-4-yl-thiophen-2-yl]-3-m-tolyl-3H-quinazolin-4-one] | 51% | 
CSc1ccc(-c2cc(-c3nc4ccccc4c(=O)n3-c3cccc(C)c3)sc2N2CCOCC2)cc1 [Example 288, 2-[4-(4-Methylsulfanyl-phenyl)-5-morpholin-4-yl-thiophen-2-yl]-3-m-tolyl-3H-quinazolin-4-one] | 31% | 
Cc1ccc(-n2c(-c3cc(-c4ccccc4)c(N4CCOCC4)s3)nc3ccccc3c2=O)cc1 [Example 290, 2-(5-Morpholin-4-yl-4-phenyl-thiophene-2-yl)-3-p-tolyl-3H-quinazolin-4-one] | 48% | 
Cc1ccc(-n2c(-c3cc(-c4ccc(Cl)cc4)c(N4CCOCC4)s3)nc3ccccc3c2=O)cc1 [Example 291, 2-[4-(4-Chlorophenyl)-5-morpholin-4-yl-thiophen-2-yl]-3-p-tolyl-3H-quinazolin-4-one] | 53% | 
Cc1ccc(-n2c(-c3cc(-c4ccc(S(C)(=O)=O)cc4)c(N4CCOCC4)s3)nc3ccccc3c2=O)cc1 [Example 292, 2-[4-(4-Methanesulfonyl-phenyl)-5-morpholin-4-yl-thiophen-2-yl]-3-p-tolyl-3H-quinazolin-4-one] | 31% | 
COc1ccccc1-n1c(-c2cc(-c3ccccc3)c(N3CCOCC3)s2)nc2ccccc2c1=O [Example 294, 3-(2-Methoxy-phenyl)-2-(5-morpholin-4-yl-4-phenyl-thiophen-2-yl)-3H-quinazolin-4-one] | 34% | 
